Assay results from patent US20120115865A1, “New Salts of an Indole Derivative and Their Use in Medicine” (priority 2006, published 2012).
Where a name gives a salt, the structure may show the parent alone.

Test: Hygroscopicity by Dynamic Vapour Sorption Analysis (DVS)
Type: physicochemical
Conditions: 25° C.
Experimental: Dynamic Vapour Sorption Analysis (DVS)
The studies were undertaken using Dynamic Vapour Sorption Appararatus (DVS, Surface Measurement Systems, London UK). The apparatus consists of Cahn micobalance housed inside a temperature-controled cabinet. All experiments were performed at 25° C. The DVS was used to characterize the moisture uptake (% w/w) at different relative humidities (RH). Samples (5-10 mg) were weighed directly into the DSV sample cup and exposed to different relative humidities.

Row | Molecule | moisture uptake (relative humidity 40%) [% w/w] | moisture uptake (relative humidity 60%) [% w/w] | moisture uptake (relative humidity 80%) [% w/w]
1 | CS(=O)(=O)O.N#Cc1ccc2[nH]c(O)c(-c3ccc(CN4CCOCC4)cn3)c2c1 [Mesylate, 2-Hydroxy-3-[5-(morpholin-4-ylmethyl)pyridin-2-yl]1H-indole-5-carbonitrile mesylate] | 0.7 | 1.1 | 1.6
2 | CCS(=O)(=O)O.N#Cc1ccc2[nH]c(O)c(-c3ccc(CN4CCOCC4)cn3)c2c1 [Esylate, 2-Hydroxy-3-[5-(morpholin-4-ylmethyl)pyridin-2-yl]1H-indole-5-carbonitrile esylate] | 0.5 | 0.8 | 1.2
3 | N#Cc1ccc2[nH]c(O)c(-c3ccc(CN4CCOCC4)cn3)c2c1.O=C(O)/C=C\C(=O)O [Maleate, 2-hydroxy-3-[5-(morpholin-4-ylmethyl)pyridin-2-yl]1H-indole-5-carbonitrile maleate] | 1.7 | 2.2 | 2.7
4 | N#Cc1ccc2[nH]c(O)c(-c3ccc(CN4CCOCC4)cn3)c2c1 [HCl, 2-hydroxy-3-[5-(morpholin-4-ylmethyl)pyridin-2-yl]1H-indole-5-carbonitrile, reference compound] | 8.7 | 11.5 | 13.0
5 | N#Cc1ccc2[nH]c(O)c(-c3ccc(CN4CCOCC4)cn3)c2c1.O=C(O)/C=C/C(=O)O [Fumarate, 2-hydroxy-3-[5-(morpholin-4-ylmethyl)pyridin-2-yl]1H-indole-5-carbonitrile fumarate] | 3.8 | 4.5 | 5.1
6 | 2-Hydroxy-3-[5-(morpholin-4-ylmethyl)pyridin-2-yl]1H-indole-5-carbonitrile edisylate | 5.1 | 6.6 | 8.2
7 | N#Cc1ccc2[nH]c(O)c(-c3ccc(CN4CCOCC4)cn3)c2c1.O=P(O)(O)O [Phosphate, 2-hydroxy-3-[5-(morpholin-4-ylmethyl)pyridin-2-yl]1H-indole-5-carbonitrile phosphate] | 4.1 | 6.6 | 10.8
